# Laboratory results taken from patent US8029795B2, “Targeted iron chelator delivery system” (Gwathmey, Inc., priority 1999, dated 2011).
# Columns and labels:
# [1] = al-Refaie et al. 1992; cited from earlier work
# [2] = set-up: species or system Sprague Dawley rats; settings: rat, in vivo
# Excerpt: Sprague Dawley rats (n=130) were obtained from Charles River Laboratories and were iron overloaded by twelve week administration of iron in the feed. The rats were divided into the following groups: • (i) overloaded (O), • (ii) liposomes injected (OL), • (iii) overloaded animals with liposome entrapped desferrioxamine (OLD), and • (iv) overloaded with desferrioxamine (OD).
# All control groups were pooled as there were not significant differences between the groups of normal non-treated controls. Range for iron was 35-150 μg/gram dry weight (human assay lab). A hepatic index of 1.0 is normal and results of 1.0-1.9 are described as nonspecific iron accumulation (human standards). […] FIGS. 4 and 5 show myocardial tissue from rat with iron overload.
# [3] = background statement; cited from earlier work
SMILES,"severe agranulocytosis, share of patients [1]",toxic effects in control rats [2],oral absorption [3]
Cc1c(O)c(=O)ccn1C [deferiprone],about 2%,–,–
CC(=O)N(O)CCCCCNC(=O)CCC(=O)N(O)CCCCCNC(=O)CCC(=O)N(O)CCCCCN [desferrioxamine],–,Neither liposomes nor desferrioxamine (DFO) had toxic effects,very low
